As usually defined, the IC50 is the concentration needed to halve the response being measured.

The first assay addresses T1, human BRS-3 (Homo sapiens, UniProt P32247).
T1 construct: expressed in transfected cells
T1 sequence (P32247 1-399): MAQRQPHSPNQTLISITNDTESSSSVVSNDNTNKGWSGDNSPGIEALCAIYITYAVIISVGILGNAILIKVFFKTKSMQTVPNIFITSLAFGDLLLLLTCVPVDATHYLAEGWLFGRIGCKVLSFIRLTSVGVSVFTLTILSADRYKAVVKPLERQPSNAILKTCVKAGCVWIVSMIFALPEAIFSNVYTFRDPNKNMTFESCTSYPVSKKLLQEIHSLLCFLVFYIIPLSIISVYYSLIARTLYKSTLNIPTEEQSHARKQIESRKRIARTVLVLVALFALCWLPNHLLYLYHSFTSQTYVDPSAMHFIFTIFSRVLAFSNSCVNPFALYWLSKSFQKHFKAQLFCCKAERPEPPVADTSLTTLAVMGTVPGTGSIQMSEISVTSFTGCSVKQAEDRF
Kind of assay: BRS-3 receptor binding assay (radioligand filtration). Conditions: read-out: BRS-3 binding IC50; selected compounds. The procedure:
Dissociated cells were collected by centrifuging at 1000 rpm for 10 minutes. Cell pellets were resuspended and homogenized at 4° C. using a Polytron homogenizer (setting 40, 20 stokes) in approximately 10 mL membrane preparation buffer (10 mM Tris pH 7.4, 0.01 mM Pefabloc, 10 μM phosphoramidon and 40 μg/mL Bacitracin) per T175 flask. After centrifugation at 2200 rpm (1000×g) for 10 minutes at 4° C., the supernatant was transferred to a clean centrifuge tube and spun at 18,000 rpm (38,742×g) for 15 minutes. at 4° C.
The filters were washed five times with ice-cold washing buffer (1×PBS without Mg^++ and Ca^++). The radioactivity was determined by adding 30 μl of microscintillant/well after each plate was dried at room temperature overnight or placed at 50° C. for 1 hr.
The radioligand, [^3H]-1-{4-[(4,5-difluoro-2-hydroxycarbonylphenyl)phenyl]}-2-(4-cyclohexylmethyl-1H-imidazol-2-yl)ethane, was used for binding to receptor membranes generated with BRS3 from other species and was also utilized for the human receptor. […] After incubation for 1-2 hours at room temperature, membrane bound [^3H]-biphenyl was separated from free radiologand by filtering through GF/C filters presoaked in 1% PEI solution. The filters were washed five times with ice-cold washing buffer (50 mM Tris pH 7.4, 10 mM MgCl2, 2.5 mM EDTA and 0.02% Triton X-100). The radioactivity was determined by adding 30 μl of microscintillant/well after each plate was dried at room temperature overnight or placed at 50° C. for 1 hr.
A Packard Top Count was used to read the filter plates. The data in % inhibition of binding was plotted vs. the log molar concentration of receptor ligand (compound). The IC50 was reported as the inflection point of the resulting sigmoidal curve.
In the case of `O[C@@](Cc1nc(CC2(C(F)(F)F)CC2)c[nH]1)(c1ccc(-n2cccn2)cc1)C(F)(F)F` [Example 31a, (2S)-1,1,1-trifluoro-2-[4-(1H-pyrazol-1-yl)phenyl]-3-(4-{[1-(trifluoromethyl)cyclopropyl]methyl}-1H-imidazol-2-yl)propan-2-ol], the IC50 was determined as 36 nM.

Staying with this assay, now noted: selected compounds; read-out: BRS-3 binding IC50.
For `CC(C)(C)Cc1c[nH]c(CC(O)(c2ccc(-c3ccc(F)cn3)cc2)C(F)F)n1` (stereo not drawn) [Example 40, 3-[4-(2,2-dimethylpropyl)-1H-imidazol-2-yl]-1,1-difluoro-2-[4-(5-fluoropyridin-2-yl)phenyl]propan-2-ol], the IC50 was found to be 15 nM.

On to `CC(O)(Cc1nc(CC2(C(F)(F)F)CC2)c[nH]1)c1ccc(-c2ccc(F)cn2)cc1` (stereo not drawn) [Example 49, 2-[4-(5-fluoropyridin-2-yl)phenyl]-1-(4-{[1-(trifluoromethyl)cyclopropyl]methyl}-1H-imidazol-2-yl)propan-2-ol], for which the IC50 was found to be 54 nM.

In the case of `CC(O)(Cc1nc(CC2(C(F)(F)F)CC2)c[nH]1)c1ccc(-n2cccn2)cc1` (stereo not drawn) [Example 52, 2-[4-(1H-pyrazol-1-yl)phenyl]-1-(4-{[1-(trifluoromethyl)cyclopropyl]methyl}-1H-imidazol-2-yl)propan-2-ol], the IC50 came to 19 nM.

Turning to `CC(C)(C)Cc1c[nH]c(CC(O)(c2ccc(-n3cccn3)cc2)C(F)F)n1` (stereo not drawn) [Example 75, 3-[4-(2,2-dimethylpropyl)-1H-imidazol-2-yl]-1,1-difluoro-2-[4-(1H-pyrazol-1-yl)phenyl]propan-2-ol], the IC50 came to 11 nM.

Regarding `OC(Cc1nc(CC2(C(F)(F)F)CC2)c[nH]1)(c1ccc(-c2ccc(F)cn2)cc1)C(F)(F)F` (single isomer, unassigned) [Example 55, 1,1,1-trifluoro-2-[4-(5-fluoropyridin-2-yl)phenyl]-3-(4-{[1-(trifluoromethyl)cyclopropyl]methyl}-1H-imidazol-2-yl)propan-2-ol], the IC50 is 56 nM.

Regarding `OC(Cc1nc(CC2(C(F)(F)F)CC2)c[nH]1)(c1ccc(-c2ccc(F)cn2)cc1)C(F)F` (stereo not drawn) [Example 45, 1,1-difluoro-2-[4-(5-fluoropyridin-2-yl)phenyl]-3-(4-{[1-(trifluoromethyl)cyclopropyl]methyl}-1H-imidazol-2-yl)propan-2-ol], the IC50 came out at 71 nM.

With `CC(C)(C)Cc1c[nH]c(CC(O)(c2ccc(-n3cccn3)cc2)C(F)(F)F)n1` (stereo not drawn) [Example 78, 3-[4-(2,2-dimethylpropyl)-1H-imidazol-2-yl]-1,1,1-trifluoro-2-[4-(1H-pyrazol-1-yl)phenyl]propan-2-ol], the half-inhibitory concentration (IC50) is 17 nM.

On to `CC(C)(C)Cc1c[nH]c(CC(C)(O)c2ccc(-n3cccn3)cc2)n1` (stereo not drawn) [Example 60, 1-[4-(2,2-dimethylpropyl)-1H-imidazol-2-yl]-2-[4-(1H-pyrazol-1-yl)phenyl]propan-2-ol], for which the IC50 is 23 nM.

As for `CC(C)(C)Cc1c[nH]c(CC(C)(O)c2ccc(-c3ccc(F)cn3)cc2)n1` (stereo not drawn) [Example 4, 1-[4-(2,2-dimethylpropyl)-1H-imidazol-2-yl]-2-[4-(5-fluoropyridin-2-yl)phenyl]propan-2-ol], the IC50 came to 19 nM.

On to `OC(Cc1nc(CC2(C(F)(F)F)CC2)c[nH]1)(c1ccc(-n2cccn2)cc1)C(F)F` (single isomer, unassigned) [Example 72, 1,1-difluoro-2-[4-(1H-pyrazol-1-yl)phenyl]-3-(4-{[1-(trifluoro-methyl)cyclopropyl]methyl}-1H-imidazol-2-yl)propan-2-ol], for which the IC50 turned out to be 12 nM.

`CC(C)(C)Cc1c[nH]c(CC(O)(c2ccc(-c3ccc(F)cn3)cc2)C(F)(F)F)n1` (stereo not drawn) [Example 1, 3-[4-(2,2-dimethylpropyl)-1H-imidazol-2-yl]-1,1,1-trifluoro-2-[4-(5-fluoropyridin-2-yl)phenyl]propan-2-ol]: the IC50 worked out at 18 nM.

The record behind these values is US8193228B2, “Substituted imidazole as bombesin receptor subtype-3 modulators” (Merck Sharp & Dohme Corp., priority 2006, dated 2012).
